# Assay: Sweet potency as logarithm of sweet potency (log SP) relative to sucrose
# Type: functional
row,SMILES,Log SP
1,C=C(C)C(=O)OC[C@H](C)NC(=O)[C@H](N)CC(=O)O,1.99
2,CCCC[C@@H](NC(=O)[C@H](N)CC(=O)O)C(=O)OC,1.49
3,CCOC(=O)C(NC(=O)[C@H](N)CC(=O)O)C(=O)OCC,1.35
4,N[C@H](CC(=O)O)C(=O)NCCC(=O)OC1CCCCC1,1.22
5,C=CC(=O)OC[C@H](C)NC(=O)[C@H](N)CC(=O)O,1.85
6,CC1CC1C(=O)OC[C@H](C)NC(=O)[C@H](N)CC(=O)O (some centres undefined),1.68
7,CCC(=O)OCCNC(=O)[C@H](N)CC(=O)O,0.61
8,CCCC(=O)OC[C@@H](NC(=O)[C@H](N)CC(=O)O)C(C)C,0.4
9,CCCCC[C@@H](NC(=O)[C@H](N)CC(=O)O)C(=O)OC,1.9
10,N[C@H](CC(=O)O)C(=O)NCC(=O)OC1CCCCC1,1.02
11,CCCOC(=O)[C@H](CO)NC(=O)[C@H](N)CC(=O)O,2.39
12,CCCCOC(=O)[C@H](NC(=O)[C@@H](N)CC(=O)O)[C@@H](C)O,1.41
13,CC(=O)OCCNC(=O)[C@H](N)CC(=O)O,0.28
14,CCOC(=O)[C@H](NC(=O)[C@H](N)CC(=O)O)C(=O)OC1CCCCC1,2.68
15,COC(=O)[C@@H](COC(=O)C(C)C)NC(=O)[C@H](N)CC(=O)O,1.65
16,CC(C)OC(=O)C[C@H](C)NC(=O)[C@H](N)CC(=O)O,0.84
17,CC(C)CC(=O)OCCNC(=O)[C@H](N)CC(=O)O,1.36
18,CCCC(O)[C@H](NC(=O)[C@H](N)CC(=O)O)C(=O)OC (stereo in doubt; 56),1.16
19,C[C@@H](COC(=O)C1CCCC1)NC(=O)[C@H](N)CC(=O)O,1.7
20,CCC(=O)OC[C@@H](NC(=O)[C@H](N)CC(=O)O)C(C)C,1.6
21,CC[C@@H](COC(=O)C1CC1)NC(=O)[C@H](N)CC(=O)O,1.38
22,CC(C)OC(=O)[C@H](NC(=O)[C@@H](N)CC(=O)O)[C@@H](C)O,1.93
23,COC(=O)C(NC(=O)[C@@H](N)CC(=O)O)C(=O)OC1CCCCC1C (stereo in doubt; 203),4.11

row,SMILES,Log SP
1,CCOCC[C@H](C)NC(=O)[C@H](N)CC(=O)O,1.14
2,CC[C@H](NC(=O)[C@H](N)CC(=O)O)C(=O)OC,1.04
3,COC(=O)[C@H](CO)NC(=O)[C@H](N)CC(=O)O,1.49
4,CC[C@@H](COC(=O)C1CCC1)NC(=O)[C@H](N)CC(=O)O,1.4
5,COC(=O)CNC(=O)[C@H](N)CC(=O)O,0.68
6,CC(C)OC(=O)C(C)CNC(=O)[C@H](N)CC(=O)O (some centres undefined),0.18
7,COC(=O)[C@@H](COC(=O)C(C)(C)C)NC(=O)[C@H](N)CC(=O)O,1.81
8,C[C@@H](COC(=O)C1CCC1)NC(=O)[C@H](N)CC(=O)O,2.24
9,COC(=O)[C@@H](COC(C)(C)C)NC(=O)[C@H](N)CC(=O)O,2.15
10,CCOC(=O)C(NC(=O)[C@@H](N)CC(=O)O)C(=O)OCC1C2(C)CCC(C2)C1(C)C (some centres undefined),4.05
11,N[C@H](CC(=O)O)C(=O)N[C@@H](CO)COC(=O)C1CCC1,1.71
12,CCC(C)C(=O)OC[C@H](CO)NC(=O)[C@H](N)CC(=O)O (some centres undefined),1.21
13,CCCC(=O)OC[C@@H](NC(=O)[C@H](N)CC(=O)O)C(=O)OC,1.43
14,N[C@H](CC(=O)O)C(=O)NCCc1ccc(F)cc1,0.57
15,CCC(CC)C(=O)OC[C@H](C)NC(=O)[C@H](N)CC(=O)O,1.53
16,COC(=O)[C@H](NC(=O)[C@@H](N)CC(=O)O)[C@@H](C)O,0.71
17,CC(C)C(=O)OC[C@@H](NC(=O)[C@H](N)CC(=O)O)C(C)C,1.1
18,CC[C@@H](Cc1ccccc1)NC(=O)[C@H](N)CC(=O)O,0.89
19,CCCOC(=O)[C@H](CCC)NC(=O)[C@H](N)CC(=O)O,1.56
20,CC(C)OC(=O)[C@H](CO)NC(=O)[C@H](N)CC(=O)O,1.96
21,CC(C)[C@@H](COC(=O)C1CC1)NC(=O)[C@H](N)CC(=O)O,1.22
22,COC(=O)[C@H](Cc1ccccc1)NC(=O)[C@@H](N)CC(=O)O,2.11
23,COC[C@@H](COC(C)=O)NC(=O)[C@H](N)CC(=O)O,0.48

row,SMILES,Log SP
1,CC(C)OC(=O)CCNC(=O)[C@H](N)CC(=O)O,0.7
2,CCCCOC(=O)[C@H](CO)NC(=O)[C@H](N)CC(=O)O,1.75
3,CCC(=O)OC[C@H](CC)NC(=O)[C@H](N)CC(=O)O,1.48
4,CCOC(=O)[C@H](NC(=O)[C@H](N)CC(=O)O)C(=O)OC1CCCC1,2.44
5,CCCOC(=O)[C@H](NC(=O)[C@@H](N)CC(=O)O)[C@H](C)O,1.51
6,CC(Cc1ccccc1)NC(=O)[C@H](N)CC(=O)O (some centres undefined),1.56
7,COC(=O)C(C)C[C@H](NC(=O)[C@@H](N)CC(=O)O)C(=O)OC (some centres undefined),1.15
8,C[C@@H](Cc1ccc(F)cc1)NC(=O)[C@H](N)CC(=O)O,1.5
9,COC(=O)CCNC(=O)[C@H](N)CC(=O)O,0.11
10,COC(=O)C(NC(=O)[C@@H](N)CC(=O)O)C(=O)OC1CC2CCC1(C)C2(C)C (some centres undefined),3.16
11,CC(C)OC(=O)[C@H](C)NC(=O)[C@H](N)CC(=O)O,1.95
12,COC(=O)[C@H](NC(=O)[C@H](N)CC(=O)O)C(=O)OC1CCC(C)CC1 (some centres undefined),1.87
13,CCC(C)OC(=O)C[C@H](C)NC(=O)[C@H](N)CC(=O)O (some centres undefined),0.6
14,COC(=O)C[C@H](C)NC(=O)[C@H](N)CC(=O)O,0.43
15,N[C@H](CC(=O)O)C(=O)N[C@@H](CO)C(=O)OC1CCCCC1,1.72
16,CC1CCC1C(=O)OC[C@H](C)NC(=O)[C@H](N)CC(=O)O (some centres undefined),2.13
17,CCCCC[C@H](C)NC(=O)[C@H](N)CC(=O)O (stereo in doubt; 10),1.43
18,CCCC(=O)OC[C@H](CO)NC(=O)[C@H](N)CC(=O)O,0.58
19,COC(=O)[C@@H](CCCNC(C)=O)NC(=O)[C@H](N)CC(=O)O,0.25
20,COC(=O)[C@H](NC(=O)[C@H](N)CC(=O)O)C(=O)OC1CCCC1,2.92
21,N[C@H](CC(=O)O)C(=O)N[C@@H](CO)COC(=O)C1CC1,1.96
22,CC(C)(C)OC(=O)CCNC(=O)[C@H](N)CC(=O)O,0.36
23,CCCOC(=O)[C@H](CC)NC(=O)[C@H](N)CC(=O)O,1.86

row,SMILES,Log SP
1,CCCOC(=O)[C@H](C)NC(=O)[C@H](N)CC(=O)O,2.1
2,CCC(=O)OC[C@H](C)NC(=O)[C@H](N)CC(=O)O,1.86
3,COC(=O)[C@@H](Cc1ccc(O)cc1)NC(=O)[C@H](N)CC(=O)O,2.15
4,CCOC(=O)C[C@H](C)NC(=O)[C@H](N)CC(=O)O (stereo in doubt; 133),0.88
5,CCC(=O)OC[C@@H](NC(=O)[C@H](N)CC(=O)O)C(=O)OC,1.53
6,COC(=O)C(NC(=O)[C@@H](N)CC(=O)O)C(=O)OC1C(C)CCCC1C (some centres undefined),4.02
7,COC(=O)C(NC(=O)[C@@H](N)CC(=O)O)C(C)c1ccccc1 (some centres undefined),0.95
8,CCC(=O)OC[C@H](CO)NC(=O)[C@H](N)CC(=O)O,1.99
9,CCCC(=O)OC[C@H](C)NC(=O)[C@H](N)CC(=O)O,1.58
10,CCC(C)[C@@H](NC(=O)[C@@H](N)CC(=O)O)C(=O)OC(C)C (some centres undefined),0.53
11,CCC(CC)OC(=O)CCNC(=O)[C@H](N)CC(=O)O,0.6
12,CC(C)CC[C@H](C)NC(=O)[C@H](N)CC(=O)O,1.85
13,COC(=O)C[C@@H](NC(=O)[C@H](N)CC(=O)O)C(=O)OC,0.6
14,CC(C)C(=O)OC[C@H](CO)NC(=O)[C@H](N)CC(=O)O,1.48
15,CC(C)C(=O)OCCNC(=O)[C@H](N)CC(=O)O,1.16
16,CCOC(=O)[C@H](NC(=O)[C@@H](N)CC(=O)O)[C@@H](C)O,0.66
17,CCCOC(=O)CNC(=O)[C@H](N)CC(=O)O,0.98
18,COC(=O)[C@@H](COC(C)=O)NC(=O)[C@H](N)CC(=O)O,0.91
19,CCOC(=O)[C@H](C)NC(=O)[C@H](N)CC(=O)O,1.75
20,CC(C)OC(=O)[C@@H](NC(=O)[C@H](N)CC(=O)O)C(C)C,2.15
21,C[C@@H](O)[C@@H](NC(=O)[C@@H](N)CC(=O)O)C(=O)OC1CCCCC1,1.44
22,N[C@H](CC(=O)O)C(=O)NCCC1CCCCC1,0.85
23,CCC[C@H](NC(=O)[C@H](N)CC(=O)O)C(=O)OC(C)C,1.43

row,SMILES,Log SP
1,CCCC(=O)OCCNC(=O)[C@H](N)CC(=O)O,0.56
2,CCCCC(=O)OC[C@H](C)NC(=O)[C@H](N)CC(=O)O,0.6
3,CCC(CC)OC(=O)[C@@H](NC(=O)[C@H](N)CC(=O)O)C(=O)OC (stereo in doubt; 198),2.79
4,CC(CNC(=O)[C@H](N)CC(=O)O)C(=O)OC1CCCC1 (some centres undefined),0.88
5,CC(C)OC(=O)[C@H](NC(=O)[C@@H](N)CC(=O)O)[C@H](C)O,0.91
6,CC(C)C(=O)OC[C@H](C)NC(=O)[C@H](N)CC(=O)O,1.98
7,COC(=O)[C@@H](CCCCNC(C)=O)NC(=O)[C@H](N)CC(=O)O,0.27
8,C[C@@H](COc1ccccc1)NC(=O)[C@H](N)CC(=O)O,1.19
9,CC[C@@H](COC(C)=O)NC(=O)[C@H](N)CC(=O)O,1.16
10,CCCCOC(=O)[C@H](NC(=O)[C@@H](N)CC(=O)O)[C@H](C)O,1.23
11,C[C@@H](Cc1ccco1)NC(=O)[C@H](N)CC(=O)O,1.16
12,CC(CNC(=O)[C@H](N)CC(=O)O)C(=O)OC1CCCCC1 (some centres undefined),0.94
13,COC(=O)CC[C@@H](NC(=O)[C@H](N)CC(=O)O)C(=O)OC,2
14,COC(=O)[C@H](C)NC(=O)[C@H](N)CC(=O)O,1.2
15,C[C@@H](CCc1ccccc1)NC(=O)[C@H](N)CC(=O)O,0.89
16,COC(=O)[C@H](NC(=O)[C@@H](N)CC(=O)O)[C@H](C)O,1.26
17,CC(C)[C@@H](COC(=O)C1CCC1)NC(=O)[C@H](N)CC(=O)O,1.06
18,CCCC(O)[C@H](NC(=O)[C@H](N)CC(=O)O)C(=O)OC (stereo in doubt; 57),0.75
19,COC(=O)[C@@H](CCC(C)C)NC(=O)[C@H](N)CC(=O)O,2.11
20,COC(=O)[C@@H](CC1CCCCC1)NC(=O)[C@H](N)CC(=O)O,2.3
21,COC(=O)[C@H](NC(=O)[C@H](N)CC(=O)O)C(=O)OC1CCCCC1,3.14
22,CC(C)CC(=O)OC[C@H](C)NC(=O)[C@H](N)CC(=O)O,2.08

# Source: ChEMBL document CHEMBL1121833, “Structure--sweetness relationship of L-aspartyl dipeptide analogues. A receptor site topology” (J Med Chem, 1981)
